Like-named read-outs stand apart in the source and are kept apart here. Blank lines part the entries; values can stand above or below the compound they belong to.
Tests used:
[1] = tested on: Jurkat; assay: CCK-8 tumor cell proliferation, Jurkat; type: cell-based, Human; conditions: Homo sapiens
Description: (§1) The tumor cells used herein were cultured in a cell culture medium listed in table 4 at 37° C. in an incubator with 5% CO2. Prior to experimentation, all cells used were correctly identified by STR profiling, and tested negative for mycoplasma through routine screenings.
(§2) IC50 values of the compounds of the present disclosure (including the compounds in Tables 1 and 3, and compounds of examples) were measured using the Meilun Cell Counting Kit-8 kit from Dalian Meilun Biotech Co., Ltd. Assay details are as follows: tumor cells were seeded in a 96-well plate at a density listed in Table 5. After 24 h, 100 μL of the inoculated cells were treated with 0.5 μL of the compounds of the present disclosure (including the compounds in Tables 1 and 3, and compounds of examples) at 10 different successively decreasing concentrations (starting at the highest concentration of 10 μM; 5-fold serial dilutions). After the cells were treated with the compounds of the present disclosure for a period of time, the cell viability detection reagent was added to the culture medium for cell viability assessment according to the instructions provided with the CCK-8 kit. […] The growth inhibition of the compounds of the present disclosure on cells was plotted by Prism Graphpad software, and the IC50 values of the compounds of the present disclosure were calculated therefrom.

[2] = tested on: CAL-62; assay: CCK-8 tumor cell proliferation, CAL-62; type: cell-based, Human; conditions: Homo sapiens, CAL-62
Description: as §1, §2

[3] = tested on: MM.1R; assay: CCK-8 tumor cell proliferation, MM.1R; type: cell-based
Description: as §1, §2

[4] = tested on: Kasumi-1; assay: CCK-8 tumor cell proliferation, Kasumi-1; type: cell-based, Human; conditions: 72 h
Description: as §1, §2

[5] = tested on: CCRF-CEM; assay: CCK-8 tumor cell proliferation, CCRF-CEM; type: cell-based, Human; parameters: IC50 for inhibiting the proliferation of tumor cells, CCRF-CEM: scale not given here; conditions: for IC50 for inhibiting the proliferation of tumor cells, CCRF-CEM: 96 h; for IC50: Homo sapiens, Table 18, FAK inhibitor based, CCRF-CEM, read-out: IC50 inhibiting proliferation of tumor cells, CCRF-CEM
Description: as §1, §2

[6] = tested on: MDA-MB-231; assay: CCK-8 tumor cell proliferation, MDA-MB-231; type: cell-based, Human; conditions: Homo sapiens; Table 18, FAK inhibitor based; MDA-MB-231; read-out: IC50 inhibiting proliferation of tumor cells, MDA-MB-231
Description: as §1, §2

[7] = tested on: MM.1S; assay: CCK-8 tumor cell proliferation, MM.1S; type: cell-based; conditions: for IC50: Homo sapiens, MM1.S, Table 18, FAK inhibitor based, MM.1S, read-out: IC50 inhibiting proliferation of tumor cells, MM.1S; for IC50 for inhibiting the proliferation of tumor cells, MM.1S: 72 h
Description: as §1, §2

[8] = tested on: SW620; assay: CCK-8 tumor cell proliferation, SW620; type: cell-based, Human; conditions: Homo sapiens, SW-620; Table 18, FAK inhibitor based; SW620; read-out: IC50 inhibiting proliferation of tumor cells, SW620
Description: as §1, §2

[9] = tested on: Mino; assay: CCK-8 tumor cell proliferation, Mino; type: cell-based, Human; conditions: for IC50: Homo sapiens, Table 18, FAK inhibitor based, Mino, read-out: IC50 inhibiting proliferation of tumor cells, Mino; for IC50 for inhibiting the proliferation of tumor cells, Mino: 72 h
Description: as §1, §2

[10] = tested on: PC-9; assay: CCK-8 tumor cell proliferation, PC-9; type: cell-based, Human; conditions: Homo sapiens; Table 18, FAK inhibitor based; PC-9; read-out: IC50 inhibiting proliferation of tumor cells, PC-9
Description: The tumor cells used herein were cultured in a cell culture medium listed in table 4 at 37° C. in an incubator with 5% CO2.
as §2, with “After” for “IC50 values of the compounds of the present disclosure (including the compounds in Tables 1 and 3, and compounds of examples) were measured using the Meilun Cell Counting Kit-8 kit from Dalian Meilun Biotech Co., Ltd. Assay details are as follows: tumor cells were seeded in a 96-well plate at a density listed in Table 5. After”

[11] = tested on: SR; assay: CCK-8 tumor cell proliferation, SR; type: cell-based, Human; conditions: Table 12, designed based on CDK9 inhibitors; 72 h
Description: as §1, §2

[12] = Table 23, compared to Comparative Example compounds, read-out: Inhibitory activity (IC50, nM) against tumor cell proliferation, Jurkat
[13] = Table 23, compared to Comparative Example compounds, read-out: Inhibitory activity (IC50, nM) against tumor cell proliferation, CAL-62
[14] = Table 23, compared to Comparative Example compounds, read-out: Inhibitory activity (IC50, nM) against tumor cell proliferation, MM.1R
[15] = Table 16, designed based on BET inhibitors
[16] = Table 18, FAK inhibitor based, read-out: IC50 inhibiting proliferation of tumor cells, CAL-62
[17] = Table 19, IRAK4 inhibitor based, read-out: IC50 inhibiting proliferation of tumor cells, Jurkat
[18] = Table 19, IRAK4 inhibitor based, read-out: IC50 inhibiting proliferation of tumor cells, CAL-62
[19] = Table 19, IRAK4 inhibitor based, read-out: IC50 inhibiting proliferation of tumor cells, MM.1R
[20] = Table 7, designed based on BTK inhibitors
[21] = Table 8, designed based on ER inhibitors

SMILES: CCc1cc2c(cc1N1CCC(N3CCN(CCCc4ccc5c(c4)CN(C4CCC(=O)NC4=O)C5=O)CC3)CC1)C(C)(C)c1[nH]c3cc(C#N)ccc3c1C2=O (stereo not shown) [GT-04457, 8-(4-(4-(3-(2-(2,6-dioxopiperidin-3-yl)-1-oxoisoindolin-5-yl)propyl)piperazin-1-yl)piperidin-1-yl)-9-ethyl-6,6-dimethyl-11-oxo-6,11-dihydro-5H-benzo[b]carbazole-3-carbonitrile]
- IC50 [1, 12]: 100 to 500 nM
- IC50 [2, 13]: 5000 to 10000 nM
- IC50 [3, 14]: 5000 to 10000 nM

SMILES: Cc1sc2c(c1C)C(c1ccc(Cl)cc1)=N[C@@H](CC(=O)N1CCN(Cc3ccc4c(c3)CN(C3CCC(=O)NC3=O)C4=O)CC1)c1nnc(C)n1-2 (stereo partly drawn) [GT-02967, 3-(5-((4-(2-((S)-4-(4-chlorophenyl)-2,3,9-trimethyl-6H-thieno[3,2-f][1,2,4]triazolo[4,3-a][1,4]diazepin-6-yl)acetyl)piperazin-1-yl)methyl)-1-oxoisoindolin-2-yl)piperidine-2,6-dione]
- IC50 for inhibiting the proliferation of tumor cells, Kasumi-1 [4, 15]: A+
- IC50 for inhibiting the proliferation of tumor cells, CCRF-CEM [5, 15]: A+

SMILES: CC(C)(O)c1cc2nc(C3CCN(Cc4ccc5c(c4F)CN(C4CCC(=O)NC4=O)C5=O)CC3)oc2cc1NC(=O)c1cccc(C(F)(F)F)n1 (stereo not shown) [GT-04518, N-(2-(1-((2-(2,6-dioxopiperidin-3-yl)-4-fluoro-1-oxoisoindolin-5-yl)methyl)piperidin-4-yl)-5-(2-hydroxypropan-2-yl)benzo[d]oxazol-6-yl)-6-(trifluoromethyl)picolinamide]
- IC50 [1, 17]: < 50 nM
- IC50 [2, 18]: 100 to 500 nM
- IC50 [3, 19]: 50 to 100 nM

SMILES: NC(=O)c1ccc(C2CCN(Cc3ccc4c(c3)CN(C3CCC(=O)NC3=O)C4=O)CC2)nc1-c1ccc(Oc2ccccc2)cc1 (stereo not shown) [GT-03693, 6-(1-((2-(2,6-dioxopiperidin-3-yl)-1-oxoisoindolin-5-yl)methyl)piperidin-4-yl)-2-(4-phenoxyphenyl)nicotinamide]
- IC50 for inhibiting the proliferation of tumor cells, MM.1S [7, 20]: A+
- IC50 for inhibiting the proliferation of tumor cells, CCRF-CEM [5, 20]: A+
- IC50 for inhibiting the proliferation of tumor cells, Mino [9, 20]: A+

SMILES: O=C1CCC(N2Cc3cc(CN4CCN(c5ccc(C(=C(CCCl)c6ccccc6)c6ccccc6)cc5)CC4)ccc3C2=O)C(=O)N1 (stereo not shown) [GT-03637, 3-(5-((4-(4-(4-chloro-1,2-diphenylbut-1-en-1-yl)phenyl)piperazin-1-yl)methyl)-1-oxoisoindolin-2-yl)piperidine-2,6-dione]
- IC50 for inhibiting the proliferation of tumor cells, Kasumi-1 [4, 21]: A+
- IC50 for inhibiting the proliferation of tumor cells, CCRF-CEM [5, 21]: A+
- IC50 for inhibiting the proliferation of tumor cells, Mino [9, 21]: A+

SMILES: CC(C)(C)c1cnc(CSc2cnc(NC(=O)C3CCN(Cc4ccc5c(c4)CN(C4CCC(=O)NC4=O)C5=O)CC3)s2)o1 (stereo not shown) [GT-03242, N-(5-(((5-(tert-butyl)oxazol-2-yl)methyl)thio)thiazol-2-yl)-1-((2-(2,6-dioxopiperidin-3-yl)-1-oxoisoindolin-5-yl)methyl)piperidine-4-carboxamide]
- IC50 for inhibiting the proliferation of tumor cells, MM.1S ([7]; Table 12, designed based on CDK9 inhibitors): A+
- IC50 for inhibiting the proliferation of tumor cells, SR [11]: A+

The next lines start with the values.

- IC50 [6]: < 50 nM
- IC50 [7]: < 50 nM
- IC50 [5]: < 50 nM
- IC50 [8]: < 50 nM
- IC50 [9]: 50 to 100 nM
- IC50 [2, 16]: < 50 nM
SMILES: CS(=O)(=O)c1cccc(CNc2nc(Nc3ccc(N4CCN(Cc5ccc6c(c5F)CN(C5CCC(=O)NC5=O)C6=O)CC4)cc3)ncc2C(F)(F)F)c1 (stereo not shown) [GT-03817, 3-(4-fluoro-5-((4-(4-((4-((3-(methylsulfonyl)benzyl)amino)-5-(trifluoromethyl)pyrimidin-2-yl)amino)phenyl)piperazin-1-yl)methyl)-1-oxoisoindolin-2-yl)piperidine-2,6-dione]

- IC50 [6]: < 50 nM
- IC50 [7]: < 50 nM
- IC50 [5]: < 50 nM
- IC50 [8]: < 50 nM
- IC50 [9]: < 50 nM
- IC50 [2, 16]: < 50 nM
SMILES: CS(=O)(=O)c1cccc(CNc2nc(Nc3ccc(N4CCN(Cc5cc6c(cc5F)C(=O)N(C5CCC(=O)NC5=O)C6)CC4)cc3)ncc2C(F)(F)F)c1 (stereo not shown) [GT-03818, 3-(6-fluoro-5-((4-(4-((4-((3-(methylsulfonyl)benzyl)amino)-5-(trifluoromethyl)pyrimidin-2-yl)amino)phenyl)piperazin-1-yl)methyl)-1-oxoisoindolin-2-yl)piperidine-2,6-dione]

- IC50 [1, 17]: < 50 nM
- IC50 [2, 18]: < 50 nM
- IC50 [3, 19]: < 50 nM
SMILES: CC(C)(O)c1cc2nc(C3CCN(Cc4cc5c(cc4F)C(=O)N(C4CCC(=O)NC4=O)C5)CC3)oc2cc1NC(=O)c1cccc(C(F)(F)F)n1 (stereo not shown) [GT-04519, N-(2-(1-((2-(2,6-dioxopiperidin-3-yl)-6-fluoro-1-oxoisoindolin-5-yl)methyl)piperidin-4-yl)-5-(2-hydroxypropan-2-yl)benzo[d]oxazol-6-yl)-6-(trifluoromethyl)picolinamide]

- IC50 [1, 12]: 100 to 500 nM
- IC50 [2, 13]: 1000 to 5000 nM
- IC50 [3, 14]: 5000 to 10000 nM
SMILES: O=C1CCC(N2Cc3cc(CCN4CCN(c5ccc([C@@H]6c7ccc(O)cc7CC[C@@H]6c6ccccc6)cc5)CC4)ccc3C2=O)C(=O)N1 (stereo partly drawn) [GT-04562, 3-(5-(2-(4-(4-((1R,2S)-6-hydroxy-2-phenyl-1,2,3,4-tetrahydronaphthalen-1-yl)phenyl)piperazin-1-yl)ethyl)-1-oxoisoindolin-2-yl)piperidine-2,6-dione]

- IC50 [1, 12]: 1000 to 5000 nM
- IC50 [2, 13]: 1000 to 5000 nM
- IC50 [3, 14]: 100 to 500 nM
SMILES: COc1cc(N2CCC(N(C)CCc3ccc4c(c3)CN(C3CCC(=O)NC3=O)C4=O)CC2)ccc1Nc1ncc(Cl)c(Nc2ccccc2P(C)(C)=O)n1 (stereo not shown) [GT-04513, 3-(5-(2-((1-(4-((5-chloro-4-((2-(dimethylphosphoryl)phenyl)amino)pyrimidin-2-yl)amino)-3-methoxyphenyl)piperidin-4-yl)(methyl)amino)ethyl)-1-oxoisoindolin-2-yl)piperidine-2,6-dione]

- IC50 [6]: < 50 nM
- IC50 [7]: < 50 nM
- IC50 [10]: 1000 to 5000 nM
- IC50 [5]: < 50 nM
- IC50 [8]: < 50 nM
- IC50 [9]: 100 to 500 nM
- IC50 [2, 16]: < 50 nM
SMILES: CS(=O)(=O)c1cccc(CNc2nc(Nc3ccc(N4CCN(Cc5ccc6c(c5)CN(C5CCC(=O)NC5=O)C6=O)CC4)cc3)ncc2C(F)(F)F)c1 (stereo not shown) [GT-03792, 3-(5-((4-(4-((4-((3-(methylsulfonyl)benzyl)amino)-5-(trifluoromethyl)pyrimidin-2-yl)amino)phenyl)piperazin-1-yl)methyl)-1-oxoisoindolin-2-yl)piperidine-2,6-dione]

- IC50 [6]: < 50 nM
- IC50 [7]: 100 to 500 nM
- IC50 [5]: 500 to 1000 nM
- IC50 [8]: 100 to 500 nM
- IC50 [2, 16]: 50 to 100 nM
SMILES: CNC(=O)c1ccccc1Nc1cc(Nc2ccc(N3CCC(N(C)Cc4ccc5c(c4)CN(C4CCC(=O)NC4=O)C5=O)CC3)cc2OC)ncc1C(F)(F)F (stereo not shown) [GT-03679, 2-((2-((4-(4-(((2-(2,6-dioxopiperidin-3-yl)-1-oxoisoindolin-5-yl)methyl)(methyl)amino)piperidin-1-yl)-2-methoxyphenyl)amino)-5-(trifluoromethyl)pyridin-4-yl)amino)-N-methylbenzamide]
